Laboratory results taken from article PMC7383509 (Clinical Pharmacology in Drug Development, 2019).
Where “and” joins values, the source holds several entries; their conditions need not be identical. Equal entries are not always repeated. Where two headings read alike, the source gives them in different places.

How the values were obtained:
[1] = human plasma; cited from earlier work
[2] = assay type: in vivo, human; conditions: for Tmax / AUC / clearance / Cmax / Vd / half-life: human, plasma, iv; for AUC: AUC0‐t; for AUC / clearance / Cmax / Vd / half-life: ESRD subjects, single 0.5 mg IV; for AUC / Cmax: dose-normalized to 1 mg; for clearance: CL; for Vd: Vz; for half-life: t½
[3] = Hepatic impairment study: safety and tolerability; assay type: in vivo, human
[4] = assay type: in vivo, human; conditions: for AUC / clearance / Cmax / Vd / half-life: 0.5 mg, single 0.5 mg IV; for AUC: AUC0‐t; for AUC / Cmax: dose-normalized to 1 mg; for clearance: CL; for Vd: Vz; for half-life: t½
[5] = Renal impairment study: safety and tolerability; assay type: in vivo, human
[6] = remainder eliminated in the feces; cited from earlier work
[7] = ESRD subjects/healthy subjects, ANCOVA
[8] = ESRD subjects/healthy subjects, ANCOVA, dose-adjusted
[9] = mild hepatic impairment, 0.5 mg IV, 10 subjects
[10] = moderate hepatic impairment, 0.5 mg IV, 10 subjects
[11] = severe hepatic impairment, 0.5 mg IV, 6 subjects
[12] = human, plasma, iv, arithmetic mean ± SD, mild hepatic impairment
[13] = human, plasma, iv, arithmetic mean ± SD, moderate hepatic impairment
[14] = human, plasma, iv, arithmetic mean ± SD, severe hepatic impairment
[15] = human, plasma, iv, geometric mean (%CVb), severe hepatic impairment
[16] = human, plasma, iv, geometric mean (%CVb), mild hepatic impairment
[17] = human, plasma, iv, geometric mean (%CVb), moderate hepatic impairment

For `COc1ccsc1CNCC[C@@]1(c2ccccn2)CCOC2(CCCC2)C1` [Oliceridine], the Free fraction [1] is given as 23%, the “CL, ratio of geometric means” value [2, 7] is given as 81.2 and the “t½, ratio of geometric means” value [2, 7] is given as 128. The “AUC0‐t, ratio of geometric means” value [2, 8] was 108, the “AUC0‐∞, ratio of geometric means” value [2, 8] was 123 and the “Cmax, ratio of geometric means” value [2, 8] was 113. The Tmax ([2]; 0.5 mg) was 0.25 h, the AUC ([2]; 0.5 mg, arithmetic mean (SD)) was 19.7 ng·h/mL and the AUC ([2]; 0.5 mg, geometric mean (%CVb)) was 19.1 ng·h/mL. For the same compound, the clearance ([2]; 0.5 mg, arithmetic mean (SD)) was 847 mL/min, the clearance ([2]; 0.5 mg, geometric mean (%CVb)) was 820 mL/min and the Cmax ([2]; 0.5 mg, arithmetic mean (SD)) was 9.96 ng/mL. For the same compound, the Cmax ([2]; 0.5 mg, geometric mean (%CVb)) was 9.87 ng/mL, the Vd ([2]; 0.5 mg, arithmetic mean (SD)) was 219 L and the Vd ([2]; 0.5 mg, geometric mean (%CVb)) was 212 L. The half-life ([2]; 0.5 mg, arithmetic mean (SD)) was 3.11 h, the half-life ([2]; 0.5 mg, geometric mean (%CVb)) was 2.99 h and the Tmax ([2]; 1 mg) was 0.25 h. The “At least 1 TEAE, no. of events” value ([3]; healthy, 1 mg IV, 8 subjects) was 0 no. of events, the “Somnolence, no. of events” value ([3]; healthy, 1 mg IV, 8 subjects) was 0 no. of events and the “Somnolence, subjects” value ([3]; healthy, 1 mg IV, 8 subjects) was 0 (0%) n (%). For the same compound, the “Subjects with TEAEs by maximum severity: Mild” value (from here on “Subjects with TEAEs … Mild”) ([3]; healthy, 1 mg IV, 8 subjects) was 0 (0%) n (%), the “Subjects with TEAEs by maximum severity: Moderate” value (“Subjects with TEAEs … Moderate” for short) ([3]; healthy, 1 mg IV, 8 subjects) was 0 and the “Subjects with TEAEs by maximum severity: Severe” value (“Subjects with TEAEs … Severe” for short) ([3]; healthy, 1 mg IV, 8 subjects) was 0. The “Subjects with at least 1 TEAE” value ([3]; healthy, 1 mg IV, 8 subjects) was 0 (0%) n (%), the “TEAEs by maximum severity: Mild, no. of events” value (shortened to “TEAEs … no. of events”) ([3]; healthy, 1 mg IV, 8 subjects) was 0 no. of events and the “Duration of somnolence TEAEs” value ([3]; mild hepatic impairment group, mild intensity, resolved completely) was “approximately 1 hour”. For the same compound, the “At least 1 TEAE, no. of events” value [3, 9] was 2 no. of events, the “Somnolence, no. of events” value [3, 9] was 2 no. of events and the “Somnolence, subjects” value [3, 9] was 2 n (%) and 2 (20%) n (%). For the same compound, the “Subjects with TEAEs … Mild” value [3, 9] was 2 (20%) n (%), the “Subjects with TEAEs … Moderate” value [3, 9] was 0 and the “Subjects with TEAEs … Severe” value [3, 9] was 0. The “Subjects with at least 1 TEAE” value [3, 9] was 2 (20%) n (%), the “TEAEs … no. of events” value [3, 9] was 2 no. of events and the “At least 1 TEAE, no. of events” value [3, 10] was 0 no. of events. For the same compound, the “Somnolence, no. of events” value [3, 10] was 0 no. of events, the “Somnolence, subjects” value [3, 10] was 0 (0%) n (%) and the “Subjects with TEAEs … Mild” value [3, 10] was 0 (0%) n (%). For the same compound, the “Subjects with TEAEs … Moderate” value [3, 10] was 0, the “Subjects with TEAEs … Severe” value [3, 10] was 0 and the “Subjects with at least 1 TEAE” value [3, 10] was 0 (0%) n (%). The “TEAEs … no. of events” value [3, 10] was 0 no. of events, the “At least 1 TEAE, no. of events” value [3, 11] was 0 no. of events and the “Somnolence, no. of events” value [3, 11] was 0 no. of events. The “Somnolence, subjects” value [3, 11] was 0 (0%) n (%), the “Subjects with TEAEs … Mild” value [3, 11] was 0 (0%) n (%) and the “Subjects with TEAEs … Moderate” value [3, 11] was 0. The “Subjects with TEAEs … Severe” value [3, 11] was 0, the “Subjects with at least 1 TEAE” value [3, 11] was 0 (0%) n (%) and the “TEAEs … no. of events” value [3, 11] was 0 no. of events. For the same compound, the “CL, GM ratio Mild:Healthy (90%CI)” value ([4]; ANOVA) was 1.05 (0.77, 1.43), the “CL, GM ratio Moderate:Healthy (90%CI)” value ([4]; ANOVA) was 0.80 (0.59, 1.09) and the “CL, GM ratio Severe:Healthy (90%CI)” value ([4]; ANOVA) was 0.99 (0.71, 1.38). For the same compound, the “t½, GM ratio Mild:Healthy (90%CI)” value ([4]; ANOVA) was 1.26 (0.96, 1.66), the “t½, GM ratio Moderate:Healthy (90%CI)” value ([4]; ANOVA) was 2.09 (1.59, 2.75) and the “AUC0‐t, GM ratio Mild:Healthy (90%CI)” value ([4]; dose-normalized, ANOVA) was 0.93 (0.68, 1.28). For the same compound, the “AUC0‐∞, GM ratio Mild:Healthy (90%CI)” value ([4]; dose-normalized, ANOVA) was 0.95 (0.70, 1.29), the “AUC0‐∞, GM ratio Moderate:Healthy (90%CI)” value ([4]; dose-normalized, ANOVA) was 1.25 (0.92, 1.70) and the “AUC0‐∞, GM ratio Severe:Healthy (90%CI)” value ([4]; dose-normalized, ANOVA) was 1.01 (0.72, 1.41). For the same compound, the “Cmax, GM ratio Mild:Healthy (90%CI)” value ([4]; dose-normalized, ANOVA) was 1.19 (0.54, 2.60), the “Cmax, GM ratio Moderate:Healthy (90%CI)” value ([4]; dose-normalized, ANOVA) was 1.20 (0.55, 2.62) and the “Cmax, GM ratio Severe:Healthy (90%CI)” value ([4]; dose-normalized, ANOVA) was 0.24 (0.10, 0.56). The AUC [4, 12] was 23.3 ± 7.9 ng·h/mL, the AUC [4, 13] was 29.9 ± 11.3 ng·h/mL and the AUC [4, 14] was 23.4 ± 10.3 ng·h/mL. The AUC [4, 15] was 21.8 ng·h/mL, the clearance [4, 12] was 807 mL/min and the clearance [4, 13] was 595 mL/min. For the same compound, the clearance [4, 14] was 738 mL/min, the clearance [4, 16] was 742 mL/min and the clearance [4, 17] was 565 mL/min. The clearance [4, 15] was 697 mL/min, the Cmax [4, 12] was 62.3 ± 48.8 ng/mL and the Cmax [4, 13] was 46.6 ± 19.4 ng/mL. For the same compound, the Cmax [4, 14] was 11.9 ± 10.6 ng/mL, the Cmax [4, 16] was 41.4 ng/mL and the Cmax [4, 17] was 41.9 ng/mL. For the same compound, the Cmax [4, 15] was 8.4 ng/mL, the Vd [4, 12] was 181 ± 81.2 L and the Vd [4, 13] was 215 ± 39.1 L. For the same compound, the Vd [4, 14] was 370 ± 130 L, the Vd [4, 16] was 167 L and the Vd [4, 17] was 212 L. The Vd [4, 15] was 348 L, the half-life [4, 12] was 2.7 ± 0.53 h and the half-life [4, 13] was 4.7 ± 2.1 h. The half-life [4, 14] was 6.3 ± 2.6 h, the half-life [4, 16] was 2.6 h and the half-life [4, 17] was 4.3 h. For the same compound, the half-life [4, 15] was 5.8 h, the AUC(0-t) ([4]; human, plasma, iv, 1 mg) was 24.1 ± 7.5 ng·h/mL and the “At least 1 TEAE, no. of events” value ([5]; ESRD, 0.5 mg IV, 9 subjects) was 2 no. of events. For the same compound, the “Dizziness, subjects” value ([5]; ESRD, 0.5 mg IV, 9 subjects) was 0, the “Euphoria, subjects” value ([5]; ESRD, 0.5 mg IV, 9 subjects) was 0 and the “Fatigue, no. of events” value ([5]; ESRD, 0.5 mg IV, 9 subjects) was 1 no. of events. The “Fatigue, subjects” value ([5]; ESRD, 0.5 mg IV, 9 subjects) was 1 (11%) n (%), the “Feeling of relaxation, subjects” value ([5]; ESRD, 0.5 mg IV, 9 subjects) was 0 and the “Headache, subjects” value ([5]; ESRD, 0.5 mg IV, 9 subjects) was 0. The “Nausea, no. of events” value ([5]; ESRD, 0.5 mg IV, 9 subjects) was 1 no. of events, the “Nausea, subjects” value ([5]; ESRD, 0.5 mg IV, 9 subjects) was 1 (11%) n (%) and the “Pain in extremity, subjects” value ([5]; ESRD, 0.5 mg IV, 9 subjects) was 0. For the same compound, the “Subjects with TEAEs … Mild” value ([5]; ESRD, 0.5 mg IV, 9 subjects) was 2 (22%) n (%), the “Subjects with TEAEs … Moderate” value ([5]; ESRD, 0.5 mg IV, 9 subjects) was 0 and the “Subjects with TEAEs … Severe” value ([5]; ESRD, 0.5 mg IV, 9 subjects) was 0. The “Subjects with at least 1 TEAE” value ([5]; ESRD, 0.5 mg IV, 9 subjects) was 2 (22%) n (%), the “TEAEs … no. of events” value ([5]; ESRD, 0.5 mg IV, 9 subjects) was 2 no. of events and the “Total number of mild TEAEs, overall” value ([5]; all 17 subjects of the renal study) was 11. The “Subjects who experienced TEAEs, overall” value ([5]; all subjects of the renal study (6 of 17)) was 35.3%, the “Dizziness, no. of events” value ([5]; healthy, 1 mg IV, 8 subjects) was 1 no. of events and the “Dizziness, subjects” value ([5]; healthy, 1 mg IV, 8 subjects) was 1 (12.5%) n (%). The “Euphoria, no. of events” value ([5]; healthy, 1 mg IV, 8 subjects) was 2 no. of events, the “Euphoria, subjects” value ([5]; healthy, 1 mg IV, 8 subjects) was 2 (25%) n (%) and the “Fatigue, no. of events” value ([5]; healthy, 1 mg IV, 8 subjects) was 2 no. of events. The “Fatigue, subjects” value ([5]; healthy, 1 mg IV, 8 subjects) was 2 (25%) n (%), the “Feeling of relaxation, no. of events” value ([5]; healthy, 1 mg IV, 8 subjects) was 1 no. of events and the “Feeling of relaxation, subjects” value ([5]; healthy, 1 mg IV, 8 subjects) was 1 (12.5%) n (%). The “Headache, no. of events” value ([5]; healthy, 1 mg IV, 8 subjects) was 1 no. of events, the “Headache, subjects” value ([5]; healthy, 1 mg IV, 8 subjects) was 1 (12.5%) n (%) and the “Nausea, no. of events” value ([5]; healthy, 1 mg IV, 8 subjects) was 3 no. of events. For the same compound, the “Nausea, subjects” value ([5]; healthy, 1 mg IV, 8 subjects) was 2 (25%) n (%), the “Pain in extremity, no. of events” value ([5]; healthy, 1 mg IV, 8 subjects) was 1 no. of events and the “Pain in extremity, subjects” value ([5]; healthy, 1 mg IV, 8 subjects) was 1 (12.5%) n (%). For the same compound, the “Subjects with TEAEs … Mild” value ([5]; healthy, 1 mg IV, 8 subjects) was 4 (50%) n (%), the “Subjects with TEAEs … Moderate” value ([5]; healthy, 1 mg IV, 8 subjects) was 0 and the “Subjects with TEAEs … Severe” value ([5]; healthy, 1 mg IV, 8 subjects) was 0. For the same compound, the “TEAEs … no. of events” value ([5]; healthy, 1 mg IV, 8 subjects) was 9 no. of events and the “Share of the metabolites eliminated in the urine” value [6] was “Approximately 70%”.
